From patent publication US7230027B2, “Anti-first-pass effect compounds” (Bioavailability Systems, L.L.C., priority 1997, dated 2007)
Like-named read-outs stand apart in the source and are kept apart here.

Tests used:
Human Cytochrome P450 [1] = test: Protocol C: human cytochrome P450-mediated biotransformation of terfenadine in human hepatic S9; type: biochemical
Procedure: Protocol C: Assessment of Human Cytochrome P450-Mediated Biotransformation
The process of preparing incubation mixtures begins by mixing 10 uL of ethanol or an ethanolic solution containing an inhibitor with 100 uL of 100 mg/mL bovine serum albumin (Sigma) dissolved in reaction buffer at room temperature. Reaction buffer is composed of 0.10 M sodium phosphate, 1.0 mM ethylenediaminetetraacetic acid, and 5.0 mM magnesium chloride, pH 7.4 (all reagents: Fisher Scientific). Inhibitory chemicals used were ketoconazole (Research Diagnostics, Inc.), miconazole, bergapten, xanthotoxin (previous three from Sigma), bergamotin, imperatorin, isopimpinellin, psoralen, angelicin (previous five from Indofine Chemical Company, Inc.), and fractions or precipitates resulting from Protocols A, A′, B, B′, or B″ above. When possible, final inhibitor concentrations were expressed in molarity by calculation from the weighed material or by interpolation from HPLC calibration curves prepared with reference materials; otherwise, concentrations are expressed as weight per volume. Reaction tubes are placed on ice in preparation for the manipulations that follow. Sufficient reaction buffer is added so that the final volume of each tube will be 500 uL, 5 uL of a 100-fold concentrate for generating reduced nicotinamide adenine dinucleotide phosphate is added (such that completed reaction mixture contains 1.0 mM nicotinamide adenine dinucleotide phosphate, 1 U/mL glucose-6-phosphate dehydrogenase, and 10 mM glucose-6-phosphate; all from Sigma), and then human hepatic S9 (Anatomic Gift Foundation) is thawed and added in sufficient amounts to cause readily detectable amounts of metabolites to be formed in control reactions (amount necessary varies among individuals, but 10 uL is typical).
The samples prepared above are readied for HPLC assessment using the protocol that follows. Each tube is vortex mixed and centrifuged for 10 min at setting 35, the resulting supernatant is transferred to a clean tube, and the liquid is evaporated using a Speed Vac apparatus. The residue in each tube is first dissolved in 40 uL 1:1 acetonitrile:water, 2.5 mL of acetonitrile is added, and the centrifuge-transfer-evaporate step just described is repeated.
Linear gradients are used for elution and are formed by mixing mobile phase A composed of water with mobile phase B composed of 0.025% (v/v) formic acid in acetonitrile (instrument: Hewlett Packard). The elution time, in minutes, the percentage of mobile phase B present in the mixed mobile phase, and the flow rate (mL/min) are as follows: 0, 10, 0.10; 2, 10, 0.10; 3.5, 10, 0.20; 4, 10, 0.25; 5, 10, 0.25; 30, 55, 0.25; 32, 98, 0.25; 33, 98, 0.40; 39.8, 98, 0.40; 40, 98, 0.25; 45, 10, 0.25; 45.25, 10, 0.20; 50, 10, 0.20; 50.25, 10, 0.10. The chromatographic column has dimensions of 150 mm length×2.1 mm internal diameter, is packed with a proprietary material (Prism, Keystone Scientific, Inc.), is protected with a 2 mm internal diameter column containing the same material and with a PTFE filter, and is maintained at 35+/−0.2° C. The dry sample residue is mixed with 60 uL of 1:1 acetonitrile:water followed by 40 uL water just prior to each 50.25 min run cycle. The column eluate from each 10 uL injection is monitored for fluorescence with excitation at 228 nm, emission at 291 nm, and bandpass filtration at 280 nm.

Human Cytochrome P450 [2] = test: Protocol C′: human cytochrome P450-mediated biotransformation of saquinavir in human hepatic S9; type: biochemical
Procedure: Protocol C′: Assessment of Human Cytochrome P450-Mediated Biotransformation
The process of preparing incubation mixtures begins by mixing 10 uL of ethanol (control reactions) or an ethanolic solution containing an inhibitor with 100 uL of 100 mg/mL bovine serum albumin (Sigma) dissolved in reaction buffer at room temperature. Reaction buffer is composed of 0.10 M sodium phosphate, 1.0 mM ethylenediaminetetraacetic acid, and 5.0 mM magnesium chloride, pH 7.4 (all reagents: Fisher Scientific). […] Sufficient reaction buffer is added so that the final volume of each tube will be 500 uL, 5 uL of a 100-fold concentrate for generating reduced nicotinamide adenine dinucleotide phosphate is added (such that completed reaction mixture contains 1.0 mM nicotinamide adenine dinucleotide phosphate, 1 U/mL glucose-6-phosphate dehydrogenase, and 10 mM glucose-6-phosphate; all from Sigma), and then human hepatic S9 (Anatomic Gift Foundation) is thawed and added in sufficient amounts to cause readily detectable amounts of metabolites to be formed in control reactions (amount necessary varies among individuals, but 10 uL is typical). […]
The samples prepared above are readied for HPLC assessment using the protocol that follows. […]

[3] = heart transplant patients, cyclosporin co-administered with ketoconazole; cited from earlier work
[4] = oral tablet; cited from earlier work
[5] = protocol not given, Protocol C or C′

Row | Compound | first-pass effect inhibition, determined herein (Human Cytochrome P450 [1]) | first-pass effect inhibition, determined herein (Human Cytochrome P450 [1]; [5]) | other results
1 | CC(=CCOc1c2ccoc2cc2oc(=O)ccc12)CCC(O)C(C)(C)O (centres unmarked) [6′,7′-dihydroxybergamottin] | ineffective | – | –
2 | O=c1ccc2ccc3occc3c2o1 [angelicin] | – | ineffective | –
3 | CC(C)=CCC/C(C)=C/COc1c2ccoc2cc2oc(=O)ccc12 [bergamottin] | ineffective | – | first-pass inhibition (generation of saquinavir metabolites in presence of inhibitor) (Human Cytochrome P450 [2]): essentially ineffective
4 | CC(C)=CCOc1c2occc2cc2ccc(=O)oc12 [imperatorin] | – | ineffective | first-pass inhibition (generation of saquinavir metabolites in presence of inhibitor) (Human Cytochrome P450 [2]; Protocol C′, human hepatic S9, FIG. 1): essentially ineffective
5 | COc1c2ccoc2c(OC)c2oc(=O)ccc12 [isopimpinellin] | ineffective | – | –
6 | CC(=O)N1CCN(c2ccc(OCC3COC(Cn4ccnc4)(c4ccc(Cl)cc4Cl)O3)cc2)CC1 (centres unmarked) [ketoconazole] | – | – | reduction of the dose of cyclosporin required [3]: approximately 85%
7 | C/C(=C\COc1ccc2ccc(=O)oc2c1)CC[C@@H](O)C(C)(C)O [marmin] | ineffective | – | –
8 | O=c1ccc2cc3ccoc3cc2o1 [psoralen] | – | ineffective | –
9 | CC(C)(C)c1ccc(C(O)CCCN2CCC(C(O)(c3ccccc3)c3ccccc3)CC2)cc1 (centres unmarked) [terfenadine] | – | – | part of a tablet given by mouth quickly changed to metabolites [4]: 99.5%
